Common to all, as to experiment: MTT growth inhibition assay
Assay type in all cases: cell-based, human
Background: Tetrazolium dyes change colour on reduction, which living cells bring about.

The subject of one assay is BEAS-2B. The settings on record: normal cells, 72 hr, read-out: Growth inhibitory activity (IC50). The procedure: (§1) Several of the disclosed compounds were also tested for their ability to inhibit the growth of other cancer cell lines as shown in Tables 4 and 5. The cell lines were obtained from the American Type Culture Collection (Rockville, Md.) and were grown as follows: MCF-7 (p53 wt) breast cancer cells were grown in DMEM media containing 1 mM non-essential amino acids, Earle's BSS, 1 mM Na pyruvate, and 10 mg/L bovine insulin. MDA-MB-468 (p53 mt) cells were grown in DMEM/F-12 Ham's media (1:1 mixture); H838 (p53 wt) cells were grown in RPMI 1640. H358 (p53 null), H1299 (p53 null) cells were grown in RPMI 1640 supplemented with 1.5 g/L Na2CO3; 4.5 g/L glucose, 10 mM HEPES buffer, 1 mM Na pyruvate and 2 mM L-glutamine. A549 (p53 wt) cells were grown in Ham's F12K medium supplemented with 2 mM L-glutamine and 1.5 g/L Na2CO3; LNCaP (p53 wt) cells were grown in RPMI 1640 supplemented with 1.5 g/L Na2CO3, 4.5 g/L glucose, 10 mM HEPES buffer, 1 mM Na pyruvate and 2 mM L-glutamine. PC3 (p53 null) cells were cultured in Ham's F-12K medium containing 2 mM L-glutamine. TRAMP Cl cells were cultured in DEME medium with 4 mM L-glutamine adjusted to contain 1.5 g/L sodium bicarbonate and 4.5 g/L glucose supplemented with 0.005 mg/ml bovine insulin and 10 nM dehydroisoandrosterone, 5% fetal bovine serum and 5% Nu-Serum IV; HPAC (p53 wt) pancreatic cancer cells were grown in a 1:1 mixture of DMEM and Ham's F12 medium containing 1.2 g/L Na2CO3, 2.5 mM L-glutamine, 15 mM HEPES and 0.5 mM Na pyruvate supplemented with 0.002 mg/mL insulin, 5 μg/mL transferrin, 40 ng/mL hydrocortisone, 10 ng/mL epidermal growth factor and 5% fetal bovine serum. PANC-1 (p53 mt) cells were cultured with RPMI 1640 containing 1 mM HEPES buffer, 25 μg/mL gentamicin, 1.5 g/L Na2CO3 and 0.25 μg/mL amphotericin B. BxPC-3 (p53 mt) cells were grown in RPMI 1640 medium, MiaPaCa-2 (p53 mt) and S2013 (p53 mt) cells were grown in DMEM, cell line CFPAC1 (p53 mt) was grown in Iscove's MEM supplemented with 4 mM L-glutamine; T98G (p53 mt) glioma cells were cultured with DMEM supplemented with 1% Na pyruvate, and 1% non-essential amino acids; HCT116 human colon cancer cell lines were kindly provided by Dr. Bert Vogelstein (Johns Hopkins Oncology Center, Baltimore, Md.). The HCT116 cell line was maintained in McCoy's-5A media; Human bronchial epithelial cell line BEAS 2B was cultured in DMEM medium; Human mammary epithelial cell line MCF10A was cultured in a 1:1 mixture of DMEM and Ham's F12 medium containing 5% horse serum, 15 mM hepes buffer, 10 ug/ml insulin, 20 ng/ml EGF, 100 ng/ml choleratoxin and 0.5 ug/ml hydrocortisone; the human primary fibroblast cell lines IMR90-EEA and IMR90-E1A (transformed using the adenoviral oncogene E1A) were gifts from Dr. S. Lee (Harvard University, Boston, Mass.). IMR90 and IMR90-E1A cells were cultured in DMEM medium.
(§2) All media contained 10% FBS and 1% penicillin/streptomycin unless otherwise specified. The effects of disclosed compounds on human cancer cell growth, expressed as the percentage of cell survival, were determined by the MTT [3-(4,5-Dimethyl-2-thiazolyl)-2,5-diphenyl-2H-tetrazolium bromide] assay. Cells were grown in 96-well plates and exposed to the test compounds (0, 0.01, 0.1, 1, 10, 100 μM) for 72 hr followed by addition of 10 μL MTT solution (5 mg/mL; Sigma; St. Louis, Mo.) to each well. The plates were incubated for 2-4 hr at 37° C. The supernatant was then removed and formazan crystals were dissolved with 100 μL of DMSO. The absorbance at 570 nm was recorded with an OPTImax microplate reader (Molecular Devices; Sunnyvale, Calif.). The cell survival percentages were calculated by dividing the mean OD of compound containing wells by that of DMSO-control wells. Three separate experiments were accomplished to determine the IC50.

A further assay deals with Panc-1. The settings on record: Panc-1, cancer cell, 72 hr, read-out: Growth inhibitory activity (IC50). The procedure: as §1, §2
For a further assay, the system named is H838. The settings on record: 72 hr, read-out: Growth inhibitory activity (IC50). The procedure: as §1, §2
A further assay concerns HPAC. The settings on record: cancer cell, 72 hr, read-out: Growth inhibitory activity (IC50). The procedure: as §1, §2
In a further assay the test system is Mia-paca. The note with it: 72 hr, read-out: Growth inhibitory activity (IC50). The procedure: as §1, §2
Another assay relates to S2013. The settings on record: S2013, cancer cell, 72 hr, read-out: Growth inhibitory activity (IC50). The procedure: as §1, §2
The subject of another assay is BXPC3. The settings on record: 72 hr, read-out: Growth inhibitory activity (IC50). The procedure:
as §1, §2

The next assay relates to IMR90-EEA. The note with it: normal cells, 72 hr, read-out: Growth inhibitory activity (IC50). The procedure: as §1, §2
Another assay deals with MDA-MB-468. The note with it: MDA-MB-468, cancer cell, 72 hr, read-out: Growth inhibitory activity (IC50). The procedure: as §1, §2
In the next assay the test system is MCF10A. The note with it: normal cells, 72 hr, read-out: Growth inhibitory activity (IC50). The procedure: as §1, §2
A further assay concerns H358. The settings on record: 72 hr, read-out: Growth inhibitory activity (IC50). The procedure: as §1, §2
The next assay has as its system LNCaP. The note with it: cancer cell, 72 hr, read-out: Growth inhibitory activity (IC50). The procedure: as §1, §2
For another assay, the system named is H1299. The note with it: 72 hr, read-out: Growth inhibitory activity (IC50). The procedure:
as §1, §2

The next assay concerns CFPAC1. The note with it: 72 hr, read-out: Growth inhibitory activity (IC50). The procedure: as §1, §2
Setting [1] is: Homo sapiens, NCI-H838, H838, cancer cell.
Setting [2] is: Homo sapiens, MIA PaCa-2, cancer cell.
Setting [3] is: Homo sapiens, BXPC-3, BXPC3, cancer cell.
Where [4] appears, read: Homo sapiens, NCI-H358, H358, cancer cell.
Setting [5] is: Homo sapiens, NCI-H1299, H1299, cancer cell.
The mark [6] stands for this setting: Homo sapiens, CFPAC-1, CFPAC1, cancer cell.

We go through five molecules from US20100144779A1, “Marine Alkalod Makaluvamines and Derivatives Thereof” (THE UAB RESEARCH FOUNDATION, priority 2007, published 2010).

Where two headings read alike, the source gives them in different places.

As a reminder, the IC50 is the concentration needed to halve the response being measured.

In the case of `O=C1C(NCCc2ccccc2)=CC2=NCCc3c[nH]c1c32` [Compound 4d], the IC50 was found to be 695 nM in the assay with BEAS-2B; 258 nM with Panc-1; 260 nM with H838 (H838, cancer cell); 1130 nM in the assay with HPAC; 982 nM with Mia-paca (cancer cell); 5390 nM in the assay with S2013. The IC50 with BXPC3 (BXPC3, cancer cell) worked out at 2940 nM; with IMR90-EEA, 3770 nM; in the assay with MDA-MB-468 it was 101 nM; with MCF10A, 6820 nM; with H358 (H358, cancer cell), 398 nM; in the assay on LNCaP it was 161 nM. For the same molecule, the IC50 is 4270 nM with H1299 (H1299, cancer cell) and 5110 nM in the assay on CFPAC1 (CFPAC1, cancer cell).

Regarding `O=C(O)C(F)(F)F.O=C1C(NCCc2ccc3c(c2)OCO3)=CC2=NCCc3c[nH]c1c32` [Compound 6], the 50% inhibitory concentration (IC50) came out at 2240 nM with BEAS-2B (Homo sapiens); 587 nM with Panc-1 (Homo sapiens); 665 nM in the assay with H838 (setting [1]); 2920 nM in the assay on HPAC (Homo sapiens); 2740 nM in the assay with Mia-paca (setting [2]); 11200 nM with S2013 (Homo sapiens). Besides, the IC50 with BXPC3 (setting [3]) stood at 3210 nM; in the assay with IMR90-EEA (Homo sapiens), 5700 nM; in the assay on MDA-MB-468 (Homo sapiens), 428 nM; in the assay with MCF10A (Homo sapiens, MCF-10A), 13100 nM; in the assay on H358 (setting [4]) it was 1200 nM; in the assay with LNCaP (Homo sapiens), 3960 nM. Moreover, the IC50 in the assay on H1299 (setting [5]) worked out at 5940 nM; with CFPAC1 (setting [6]) it was 9100 nM.

Consider `COc1ccc(CCNC2=CC3=NCCc4c[nH]c(c43)C2=O)cc1OC.O=C(O)C(F)(F)F` [Compound 20], for which the IC50 in the assay with BEAS-2B (Homo sapiens) amounted to 1690 nM; in the assay on Panc-1 (Homo sapiens), 720 nM; in the assay on H838 (setting [1]) it was 838 nM; with HPAC (Homo sapiens), 2850 nM; in the assay on Mia-paca (setting [2]), 1320 nM; with S2013 (Homo sapiens), 29600 nM. Also, the IC50 was 5010 nM in the assay on BXPC3 (setting [3]); 2880 nM in the assay on IMR90-EEA (Homo sapiens); 277 nM with MDA-MB-468 (Homo sapiens); 3400 nM in the assay on MCF10A (Homo sapiens, MCF-10A); 983 nM with H358 (setting [4]); 24500 nM in the assay with LNCaP (Homo sapiens). Further, the IC50 in the assay with H1299 (setting [5]) was found to be 5990 nM; with CFPAC1 (setting [6]), 4270 nM.

Consider `O=C(O)C(F)(F)F.O=C1C(NCc2ccc(F)cc2)=CC2=NCCc3c[nH]c1c32` [Compound 28], for which the IC50 in the assay with BEAS-2B (Homo sapiens) was determined as 587 nM; with Panc-1 (Homo sapiens) it was 104 nM; in the assay on H838 (setting [1]), 110 nM; in the assay on HPAC (Homo sapiens), 535 nM; with Mia-paca (setting [2]), 315 nM; with S2013 (Homo sapiens) it was 4450 nM. Also, the IC50 with BXPC3 (setting [3]) is 2300 nM; in the assay with IMR90-EEA (Homo sapiens), 1490 nM; in the assay on MDA-MB-468 (Homo sapiens) it was 125 nM; with MCF10A (Homo sapiens, MCF-10A), 5330 nM; with H358 (setting [4]), 170 nM; in the assay on LNCaP (Homo sapiens) it was 1290 nM. Moreover, the IC50 with H1299 (setting [5]) worked out at 968 nM; in the assay with CFPAC1 (setting [6]), 5400 nM.

Consider `O=C1C(NCc2ccccc2)=CC2=NCCc3c[nH]c1c32` [Compound 4c], for which the IC50 in the assay on BEAS-2B worked out at 1440 nM; in the assay with Panc-1, 141 nM; in the assay with H838 (H838, cancer cell) it was 160 nM; in the assay on HPAC, 689 nM; in the assay on Mia-paca (cancer cell), 345 nM; in the assay with S2013, 3850 nM. The IC50 turned out to be 2870 nM in the assay on BXPC3 (BXPC3, cancer cell); 2770 nM in the assay with IMR90-EEA; 126 nM with MDA-MB-468; 5270 nM in the assay on MCF10A; 436 nM in the assay on H358 (H358, cancer cell); 2750 nM in the assay on LNCaP. Moreover, the IC50 amounted to 1420 nM with H1299 (H1299, cancer cell) and 8770 nM in the assay on CFPAC1 (CFPAC1, cancer cell).
